Active and inactive are the calls of the source.
What was measured:
ELAV-like protein 1 = ELAV-like protein 1 (Homo sapiens, UniProt Q15717); assay: Identify HuR specific inhibitors.; format: functional
BJ [1] = assay: BJ-TERT fibroblast viability loss – cell-based, RAS-independent, luminescence, dose response (AID 1933); format: functional; conditions: Homo sapiens
BJ [2] = assay: cells; format: functional, cell-based; conditions: Homo sapiens
[3] = DRD fibroblast viability loss – cell-based, non-viral oncogenic, luminescence, dose response (AID 1934); format: functional; conditions: Homo sapiens
BJ [4] = assay: growth inhibition of engineered Ras-driven BJ cells – cell-based, alamar blue fluorescence, cherrypicked samples, dose response (AID 2631); format: functional; conditions: Homo sapiens;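 further: confirmatory dose-response assay in RAS-dependent BJ fibroblasts engineered with TERT, LT and ST, with cytotoxicity read by fluorescence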
BJ [5] = assay: BJ-TERT-LT-ST fibroblast viability loss – cell-based, RAS-independent, luminescence, dose response (AID 1935); format: functional; conditions: Homo sapiens;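 further: BJ fibroblasts immortalized with TERT plus LT and ST oncogenes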
[6] = molecular target: Heat shock protein HSP 90-alpha (Homo sapiens, UniProt P07900); assay: Luminescence-based dose response biochemical high throughput screening assay for inhibitors of the Heat Shock Protein 90 (HSP90). [Related pubchem assays: 1831 (Summary AID.), 1846 (Confirmation screen.), 1789 (Primary screen.)]
[7] = viability loss in A549 lung cells – cell-based, 24 h, CellTiter-Glo luminescence, cherry-picks, cytotoxicity control, dose response (AID 1053115); format: functional; conditions: A549, 24 h
[8] = molecular target: NAD-dependent protein deacylase sirtuin-5, mitochondrial (Homo sapiens, UniProt Q9NXA8); assay: blockers of sirtuin-5 peptide desuccinylation – biochemical, fluorescence imaging, cherry-pick, set 6, dose response (AID 720597)
[9] = YAP1 overexpression rescue of CTGF inhibition – DLD1 cells, RT-qPCR, cherry-pick, mechanism study for YAP1 pathway inhibitor project, dose response (AID 1053127); format: functional, cell-based; conditions: DLD-1
[10] = Plasmodium falciparum Dd2 Sybr green parasite growth Measured in Cell-Based and Microorganism Combination System Using Plate Reader - 2153-01_Inhibitor_Dose_DryPowder_Activity_Set10.; format: functional
[11] = toxicity to human hepatoma HepG2 cells – cell-based, cherry-picked samples, cytotoxicity control, dose response (AID 1159577); format: functional
[12] = P. falciparum Dd2 growth inhibitors, dose response, SYBR Green, cherry-picked samples (AID 1159567); format: functional, cell-based
[13] = growth inhibition of yeast DHODH-expressing 3D7 parasites – SYBR Green, dry powder samples, dose response (AID 1159570); format: functional, cell-based;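 further: parasite growth measured after 72 hours of compound exposure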
[14] = Dd2 malaria parasite growth inhibition potency – SYBR Green, dry powder samples, dose response (AID 1159566); format: functional, cell-based;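 further: potency for growth inhibition with lower SYBR green DNA signal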
[15] = growth inhibition of PfATP4-mutant resistant parasites – NITD609-resistant line, SYBR Green, dry powder, dose response (AID 1159571); format: functional, cell-based;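 further: parasites synchronized at ring stage by sorbitol before testing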
[16] = SNU-C1 cell viability reduction, dose response, CellTiter-Glo luminescence (AID 1117323); format: functional, cell-based
[17] = Reduced DLD-1 viability, concentration-response, CellTiter-Glo luminescence (AID 1117352); format: functional
[18] = cytotoxicity toward HT-29 cells – cell-based, CellTiter-Glo luminescence, IC50, dose response (AID 1117330); format: functional
[19] = rise of 4N DNA cells, HeLa – IC50, dose response (AID 1117351); format: functional, cell-based
[20] = HCT116 cell viability decrease, GSK3B pretreatment – CellTiter-Glo, IC50, dose response (AID 1117339); format: functional; conditions: HCT-116
[21] = RKO cell viability reduction, dose response, CellTiter-Glo luminescence (AID 1117322); format: functional
[22] = rise of 2N DNA cells, HeLa – IC50, dose response (AID 1117349); format: functional, cell-based
[23] = cytotoxicity toward HCT116 cells – cell-based, CellTiter-Glo luminescence, IC50, dose response (AID 1117332); format: functional; conditions: HCT-116
[24] = molecular target: Induced myeloid leukemia cell differentiation protein Mcl-1 (Homo sapiens, UniProt Q07820); format: functional
[25] = molecular target: Bifunctional protein GlmU (Mycobacterium tuberculosis, UniProt P9WMN3); assay: Inhibitors of Mycobacterial Glucosamine-1-phosphate acetyl transferase (GlmU). Secondary screen.; design: species or system Mycobacterium tuberculosis H37Rv
Sequence of Bifunctional protein GlmU (P9WMN3 whole entry): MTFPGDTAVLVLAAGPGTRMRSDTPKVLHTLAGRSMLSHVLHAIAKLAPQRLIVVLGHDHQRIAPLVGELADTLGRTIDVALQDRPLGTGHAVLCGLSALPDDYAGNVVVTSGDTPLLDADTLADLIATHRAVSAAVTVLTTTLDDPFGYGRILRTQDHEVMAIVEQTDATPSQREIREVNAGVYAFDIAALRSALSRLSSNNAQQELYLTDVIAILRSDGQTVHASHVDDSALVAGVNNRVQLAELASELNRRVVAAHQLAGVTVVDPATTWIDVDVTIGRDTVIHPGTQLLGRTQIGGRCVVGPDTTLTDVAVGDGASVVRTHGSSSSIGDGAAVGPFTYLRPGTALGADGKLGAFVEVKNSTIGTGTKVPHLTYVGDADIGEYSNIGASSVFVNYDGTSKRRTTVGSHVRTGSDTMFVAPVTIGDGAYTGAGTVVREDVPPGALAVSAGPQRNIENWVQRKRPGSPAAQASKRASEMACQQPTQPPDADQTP

Sequence of ELAV-like protein 1 (Q15717 whole entry): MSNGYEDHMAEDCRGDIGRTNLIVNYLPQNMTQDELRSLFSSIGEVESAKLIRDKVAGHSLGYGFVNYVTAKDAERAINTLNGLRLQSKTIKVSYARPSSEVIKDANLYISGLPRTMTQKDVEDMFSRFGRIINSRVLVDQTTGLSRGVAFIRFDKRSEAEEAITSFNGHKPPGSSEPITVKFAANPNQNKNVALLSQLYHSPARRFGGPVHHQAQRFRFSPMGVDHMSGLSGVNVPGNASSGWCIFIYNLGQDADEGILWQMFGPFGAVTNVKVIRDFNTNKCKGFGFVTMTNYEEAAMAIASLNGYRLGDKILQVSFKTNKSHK
Sequence of NAD-dependent protein deacylase sirtuin-5, mitochondrial (Q9NXA8 whole entry): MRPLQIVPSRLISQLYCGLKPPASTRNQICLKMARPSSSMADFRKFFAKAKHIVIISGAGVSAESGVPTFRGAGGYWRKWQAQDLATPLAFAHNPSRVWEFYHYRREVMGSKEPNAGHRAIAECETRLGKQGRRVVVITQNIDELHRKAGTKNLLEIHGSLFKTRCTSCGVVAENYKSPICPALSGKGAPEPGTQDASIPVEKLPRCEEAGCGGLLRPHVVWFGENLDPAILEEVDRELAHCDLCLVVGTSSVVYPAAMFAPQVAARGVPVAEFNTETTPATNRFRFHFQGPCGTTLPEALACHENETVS
Sequence of Induced myeloid leukemia cell differentiation protein Mcl-1 (Q07820 whole entry): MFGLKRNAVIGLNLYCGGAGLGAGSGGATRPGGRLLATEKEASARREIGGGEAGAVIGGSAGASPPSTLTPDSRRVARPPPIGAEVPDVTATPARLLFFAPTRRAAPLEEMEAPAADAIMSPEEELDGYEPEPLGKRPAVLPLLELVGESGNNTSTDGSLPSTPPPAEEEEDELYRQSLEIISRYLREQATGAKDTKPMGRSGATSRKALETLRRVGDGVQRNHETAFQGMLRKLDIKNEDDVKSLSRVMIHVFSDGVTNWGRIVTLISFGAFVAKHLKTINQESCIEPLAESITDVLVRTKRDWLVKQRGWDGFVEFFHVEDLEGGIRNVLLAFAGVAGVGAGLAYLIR

SMILES: CC1=CC(C)(C)N=C(S)N1c1cccc2cc(S(=O)(=O)O)ccc12
- IC50 (ELAV-like protein 1): 14.7 µM (inactive)

SMILES: CNC(=S)N/N=C/c1ccc(-c2ccc(C(=O)O)cc2)o1
- EC50 (BJ [1]): 4.2 µM (active)
- EC50 (BJ [2]): 5.08 µM (active)
- EC50 [3]: 5.6 µM (active)
- EC50 (BJ [4]): > 133 µM (inactive)
- EC50 (BJ [5]): 17 µM (active)
- IC50 [6]: 8.05 µM (active)

SMILES: COc1ccccc1CN1CC[C@@H]2[C@@H](CO)Nc3ccc(C#Cc4ccccc4)cc3[C@@H]21
- AC50 [7]: > 60 µM (inactive)

SMILES: C[C@@H]1CN([C@H](C)CO)S(=O)(=O)c2ccc(/C=C/c3ccccc3)cc2O[C@H]1CN(C)C(=O)Nc1cc(F)ccc1F
- AC50 [8]: > 30 µM (inactive)

SMILES: CC(C)(C)[S@@+]([O-])N1Cc2cc(C(=O)NCCc3ccncc3)nc(-c3cccc(-c4cccc(C#N)c4)c3)c2[C@H]1CCO
- AC50 [9]: 0.498 µM (active)

SMILES: COc1ccc(-c2ccccc2[C@H]2[C@@H](C#N)N(C(=O)C3CCCC3)[C@@H]2CO)cc1
- AC50 [10]: 0.867 µM (active)
- AC50 [11]: > 42 µM (inactive)
- AC50 [12]: 1.34 µM (active)
- AC50 [13]: 0.69 µM (active)
- AC50 [14]: 0.717 µM (active)
- AC50 [15]: 2.54 µM (active)

SMILES: CC(C)C[C@H](NC(=O)[C@H](CCc1ccccc1)NC(=O)CN1CCOCC1)C(=O)N[C@@H](Cc1ccccc1)C(=O)N[C@@H](CC(C)C)C(=O)[C@@]1(C)CO1 [CARFILZOMIB]
- IC50 [16]: 0.00147 µM (active)
- IC50 [17]: 0.00696 µM (active)
- IC50 [18]: 0.00318 µM (active)
- IC50 [19]: > 10 µM (inactive)
- IC50 [20]: 0.00173 µM (active)
- IC50 [21]: 0.00394 µM (active)
- IC50 [22]: > 10 µM (inactive)
- IC50 [23]: 0.00558 µM (active)

SMILES: O=C(/C=C/c1ccc(O)c(O)c1)O[C@H](Cc1ccc(O)c(O)c1)C(=O)O [ROSMARINIC ACID]
- IC50 [24]: 2.03 µM (active)
- IC50 [25]: 84.9 µM (active)
